# From paper PMC4076210, “Discovery of Novel AKT Inhibitors with Enhanced Anti-Tumor Effects in Combination with the MEK Inhibitor” (PLoS ONE, 2014)
# Where two headings read alike, the source gives them in different places.
# Tests used:
# Test in all cases: Kinase panel
# Assay type in all cases: biochemical
# [1] = target: T1, GCK(h) (Homo sapiens, UniProt Q12851)
# T1 construct: purchased Millipore KinaseProfiler
# T1 sequence (Q12851 1-820): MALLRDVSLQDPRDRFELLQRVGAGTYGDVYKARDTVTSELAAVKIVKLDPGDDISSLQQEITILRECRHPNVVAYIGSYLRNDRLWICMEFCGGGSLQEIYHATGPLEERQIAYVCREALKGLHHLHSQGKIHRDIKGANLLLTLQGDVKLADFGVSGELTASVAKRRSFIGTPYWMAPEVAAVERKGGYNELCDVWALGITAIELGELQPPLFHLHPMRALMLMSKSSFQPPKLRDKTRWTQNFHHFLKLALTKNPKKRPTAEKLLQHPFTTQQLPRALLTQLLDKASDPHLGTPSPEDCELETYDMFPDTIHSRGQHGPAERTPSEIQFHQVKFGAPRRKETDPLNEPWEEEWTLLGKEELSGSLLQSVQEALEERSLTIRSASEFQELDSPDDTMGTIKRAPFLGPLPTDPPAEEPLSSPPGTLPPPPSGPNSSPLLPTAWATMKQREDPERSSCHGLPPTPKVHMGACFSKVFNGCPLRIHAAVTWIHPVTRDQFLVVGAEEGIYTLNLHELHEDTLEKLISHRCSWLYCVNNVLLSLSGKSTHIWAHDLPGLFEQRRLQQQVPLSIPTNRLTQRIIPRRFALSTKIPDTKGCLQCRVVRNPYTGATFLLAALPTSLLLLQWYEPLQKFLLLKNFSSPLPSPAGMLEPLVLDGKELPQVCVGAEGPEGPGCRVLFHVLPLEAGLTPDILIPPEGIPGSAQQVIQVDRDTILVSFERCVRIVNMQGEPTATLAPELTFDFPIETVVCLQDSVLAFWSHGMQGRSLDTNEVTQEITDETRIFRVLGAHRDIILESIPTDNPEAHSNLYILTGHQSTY
# [2] = target: T2, PKD2(h) (Homo sapiens, UniProt Q9BZL6)
# T2 construct: purchased Millipore KinaseProfiler
# T2 sequence (Q9BZL6 1-878): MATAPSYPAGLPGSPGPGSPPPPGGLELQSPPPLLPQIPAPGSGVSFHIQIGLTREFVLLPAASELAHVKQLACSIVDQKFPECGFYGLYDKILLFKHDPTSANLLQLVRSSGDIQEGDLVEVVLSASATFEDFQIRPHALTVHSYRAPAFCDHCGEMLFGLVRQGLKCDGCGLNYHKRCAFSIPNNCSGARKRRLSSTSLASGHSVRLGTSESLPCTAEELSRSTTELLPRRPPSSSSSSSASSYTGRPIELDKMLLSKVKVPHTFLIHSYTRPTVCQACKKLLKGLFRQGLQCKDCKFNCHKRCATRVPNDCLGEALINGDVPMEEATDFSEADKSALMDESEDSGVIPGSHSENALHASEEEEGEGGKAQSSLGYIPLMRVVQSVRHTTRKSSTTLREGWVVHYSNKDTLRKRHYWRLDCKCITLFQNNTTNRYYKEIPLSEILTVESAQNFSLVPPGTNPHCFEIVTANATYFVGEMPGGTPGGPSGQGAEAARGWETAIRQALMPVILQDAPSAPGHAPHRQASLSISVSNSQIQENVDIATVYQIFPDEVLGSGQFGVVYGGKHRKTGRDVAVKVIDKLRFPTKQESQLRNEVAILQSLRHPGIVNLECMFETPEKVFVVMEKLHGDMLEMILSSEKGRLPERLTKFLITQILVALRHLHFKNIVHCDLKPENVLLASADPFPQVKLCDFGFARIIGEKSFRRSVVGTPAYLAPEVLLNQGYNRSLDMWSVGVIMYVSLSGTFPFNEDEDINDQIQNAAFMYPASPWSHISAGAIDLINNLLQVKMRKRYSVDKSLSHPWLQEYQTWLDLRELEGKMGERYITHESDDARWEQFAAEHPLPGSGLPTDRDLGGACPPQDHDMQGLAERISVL
# [3] = target: T3, ROCK-II(r) (Rattus norvegicus, UniProt Q62868)
# T3 construct: purchased Millipore KinaseProfiler
# T3 sequence (Q62868 2-543 limits assumed): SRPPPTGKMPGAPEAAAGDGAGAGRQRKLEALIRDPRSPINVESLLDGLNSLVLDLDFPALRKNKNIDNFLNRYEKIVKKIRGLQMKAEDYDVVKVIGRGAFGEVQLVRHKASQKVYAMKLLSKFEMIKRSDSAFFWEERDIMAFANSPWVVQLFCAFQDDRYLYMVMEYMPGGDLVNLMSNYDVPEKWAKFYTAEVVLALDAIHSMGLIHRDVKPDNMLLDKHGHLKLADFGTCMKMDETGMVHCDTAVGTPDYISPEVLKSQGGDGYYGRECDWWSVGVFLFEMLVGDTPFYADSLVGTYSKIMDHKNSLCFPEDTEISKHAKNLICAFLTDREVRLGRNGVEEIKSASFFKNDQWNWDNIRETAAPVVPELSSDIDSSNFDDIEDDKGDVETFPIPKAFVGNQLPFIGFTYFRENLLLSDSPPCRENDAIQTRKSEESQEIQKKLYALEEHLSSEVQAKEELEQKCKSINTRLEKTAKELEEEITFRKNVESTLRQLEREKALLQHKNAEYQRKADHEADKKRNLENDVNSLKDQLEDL
# [4] = target: T4, TAO1(h) (Homo sapiens, UniProt Q7L7X3)
# T4 construct: purchased Millipore KinaseProfiler
# T4 sequence (Q7L7X3 1-1001): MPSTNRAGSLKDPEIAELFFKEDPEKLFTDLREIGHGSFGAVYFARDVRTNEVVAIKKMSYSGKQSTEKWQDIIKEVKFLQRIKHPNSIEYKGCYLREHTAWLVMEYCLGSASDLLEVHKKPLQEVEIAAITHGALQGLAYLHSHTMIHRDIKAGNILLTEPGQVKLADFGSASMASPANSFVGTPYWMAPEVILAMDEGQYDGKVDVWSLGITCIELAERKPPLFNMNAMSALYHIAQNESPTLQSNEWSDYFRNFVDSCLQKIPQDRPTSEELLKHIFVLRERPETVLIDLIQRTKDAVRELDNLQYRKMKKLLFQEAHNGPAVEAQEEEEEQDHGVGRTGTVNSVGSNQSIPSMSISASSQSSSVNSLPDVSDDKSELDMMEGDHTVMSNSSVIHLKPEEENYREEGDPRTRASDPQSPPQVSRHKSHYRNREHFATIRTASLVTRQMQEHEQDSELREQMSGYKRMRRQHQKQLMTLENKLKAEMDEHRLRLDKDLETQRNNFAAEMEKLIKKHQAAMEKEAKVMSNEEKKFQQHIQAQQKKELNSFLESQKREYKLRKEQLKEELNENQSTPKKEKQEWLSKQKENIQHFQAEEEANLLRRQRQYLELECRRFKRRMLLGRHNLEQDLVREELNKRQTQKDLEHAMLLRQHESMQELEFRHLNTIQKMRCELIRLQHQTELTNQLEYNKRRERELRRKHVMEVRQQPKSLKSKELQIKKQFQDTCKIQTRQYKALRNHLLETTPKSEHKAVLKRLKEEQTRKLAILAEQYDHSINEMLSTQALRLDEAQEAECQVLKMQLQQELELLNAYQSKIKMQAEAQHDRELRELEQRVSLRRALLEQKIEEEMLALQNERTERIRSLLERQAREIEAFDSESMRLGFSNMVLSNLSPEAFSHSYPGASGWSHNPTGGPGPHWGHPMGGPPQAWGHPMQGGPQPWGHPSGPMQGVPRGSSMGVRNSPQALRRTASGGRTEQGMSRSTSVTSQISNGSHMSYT
# [5] = target: T5, PRK2(h) (Homo sapiens, UniProt Q16513)
# T5 construct: purchased Millipore KinaseProfiler
# T5 sequence (Q16513 whole entry): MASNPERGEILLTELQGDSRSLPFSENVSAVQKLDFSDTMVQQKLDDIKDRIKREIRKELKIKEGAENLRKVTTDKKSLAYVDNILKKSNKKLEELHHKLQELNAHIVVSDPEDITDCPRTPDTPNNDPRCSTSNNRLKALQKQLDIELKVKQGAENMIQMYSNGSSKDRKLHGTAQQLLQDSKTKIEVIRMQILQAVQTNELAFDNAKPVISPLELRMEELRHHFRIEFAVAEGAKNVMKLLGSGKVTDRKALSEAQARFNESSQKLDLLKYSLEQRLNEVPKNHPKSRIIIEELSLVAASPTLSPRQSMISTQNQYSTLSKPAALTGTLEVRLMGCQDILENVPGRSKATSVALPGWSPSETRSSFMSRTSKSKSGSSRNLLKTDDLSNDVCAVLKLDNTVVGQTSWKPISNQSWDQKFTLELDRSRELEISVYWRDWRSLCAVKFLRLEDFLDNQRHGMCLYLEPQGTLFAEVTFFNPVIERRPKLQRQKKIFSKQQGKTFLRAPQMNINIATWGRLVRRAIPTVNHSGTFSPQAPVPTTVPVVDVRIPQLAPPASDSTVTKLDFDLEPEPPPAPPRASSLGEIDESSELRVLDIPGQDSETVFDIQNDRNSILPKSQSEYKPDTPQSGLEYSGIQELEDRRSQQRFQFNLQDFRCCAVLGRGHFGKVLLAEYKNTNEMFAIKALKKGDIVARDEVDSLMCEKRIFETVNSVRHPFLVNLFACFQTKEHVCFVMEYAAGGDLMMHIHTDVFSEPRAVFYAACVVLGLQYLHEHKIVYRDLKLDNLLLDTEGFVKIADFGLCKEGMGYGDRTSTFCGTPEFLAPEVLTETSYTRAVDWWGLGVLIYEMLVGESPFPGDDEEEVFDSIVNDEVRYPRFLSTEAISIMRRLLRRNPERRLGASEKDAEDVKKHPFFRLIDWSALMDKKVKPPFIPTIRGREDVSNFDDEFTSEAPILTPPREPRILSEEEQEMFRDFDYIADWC
# [6] = target: T6, TrkA(h) (Homo sapiens, UniProt P04629)
# T6 construct: purchased Millipore KinaseProfiler
# T6 sequence (P04629 33-796): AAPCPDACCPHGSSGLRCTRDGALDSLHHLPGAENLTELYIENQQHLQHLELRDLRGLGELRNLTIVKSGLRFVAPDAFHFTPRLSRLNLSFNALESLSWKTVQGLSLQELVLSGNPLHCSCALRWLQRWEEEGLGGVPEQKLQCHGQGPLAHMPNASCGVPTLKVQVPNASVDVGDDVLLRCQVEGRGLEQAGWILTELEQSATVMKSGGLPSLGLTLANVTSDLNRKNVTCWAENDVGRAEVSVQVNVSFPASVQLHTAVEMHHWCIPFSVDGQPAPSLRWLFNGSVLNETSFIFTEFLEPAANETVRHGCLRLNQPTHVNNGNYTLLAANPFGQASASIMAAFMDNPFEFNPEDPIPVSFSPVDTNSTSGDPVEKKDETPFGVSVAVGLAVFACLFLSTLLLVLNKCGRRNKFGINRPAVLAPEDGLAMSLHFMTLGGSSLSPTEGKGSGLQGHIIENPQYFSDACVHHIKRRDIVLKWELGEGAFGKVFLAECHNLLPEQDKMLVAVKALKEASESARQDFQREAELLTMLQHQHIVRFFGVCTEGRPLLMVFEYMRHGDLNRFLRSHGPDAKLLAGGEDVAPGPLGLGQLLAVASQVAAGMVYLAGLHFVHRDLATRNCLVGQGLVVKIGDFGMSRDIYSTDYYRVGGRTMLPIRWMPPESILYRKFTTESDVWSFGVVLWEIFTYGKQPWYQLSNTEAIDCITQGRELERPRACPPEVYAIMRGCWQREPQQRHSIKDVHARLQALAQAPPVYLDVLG
# [7] = target: T7, mTOR/FKBP12(h) (Homo sapiens, UniProt P42345)
# T7 construct: purchased Millipore KinaseProfiler
# T7 sequence (P42345 1362-2549 limits assumed): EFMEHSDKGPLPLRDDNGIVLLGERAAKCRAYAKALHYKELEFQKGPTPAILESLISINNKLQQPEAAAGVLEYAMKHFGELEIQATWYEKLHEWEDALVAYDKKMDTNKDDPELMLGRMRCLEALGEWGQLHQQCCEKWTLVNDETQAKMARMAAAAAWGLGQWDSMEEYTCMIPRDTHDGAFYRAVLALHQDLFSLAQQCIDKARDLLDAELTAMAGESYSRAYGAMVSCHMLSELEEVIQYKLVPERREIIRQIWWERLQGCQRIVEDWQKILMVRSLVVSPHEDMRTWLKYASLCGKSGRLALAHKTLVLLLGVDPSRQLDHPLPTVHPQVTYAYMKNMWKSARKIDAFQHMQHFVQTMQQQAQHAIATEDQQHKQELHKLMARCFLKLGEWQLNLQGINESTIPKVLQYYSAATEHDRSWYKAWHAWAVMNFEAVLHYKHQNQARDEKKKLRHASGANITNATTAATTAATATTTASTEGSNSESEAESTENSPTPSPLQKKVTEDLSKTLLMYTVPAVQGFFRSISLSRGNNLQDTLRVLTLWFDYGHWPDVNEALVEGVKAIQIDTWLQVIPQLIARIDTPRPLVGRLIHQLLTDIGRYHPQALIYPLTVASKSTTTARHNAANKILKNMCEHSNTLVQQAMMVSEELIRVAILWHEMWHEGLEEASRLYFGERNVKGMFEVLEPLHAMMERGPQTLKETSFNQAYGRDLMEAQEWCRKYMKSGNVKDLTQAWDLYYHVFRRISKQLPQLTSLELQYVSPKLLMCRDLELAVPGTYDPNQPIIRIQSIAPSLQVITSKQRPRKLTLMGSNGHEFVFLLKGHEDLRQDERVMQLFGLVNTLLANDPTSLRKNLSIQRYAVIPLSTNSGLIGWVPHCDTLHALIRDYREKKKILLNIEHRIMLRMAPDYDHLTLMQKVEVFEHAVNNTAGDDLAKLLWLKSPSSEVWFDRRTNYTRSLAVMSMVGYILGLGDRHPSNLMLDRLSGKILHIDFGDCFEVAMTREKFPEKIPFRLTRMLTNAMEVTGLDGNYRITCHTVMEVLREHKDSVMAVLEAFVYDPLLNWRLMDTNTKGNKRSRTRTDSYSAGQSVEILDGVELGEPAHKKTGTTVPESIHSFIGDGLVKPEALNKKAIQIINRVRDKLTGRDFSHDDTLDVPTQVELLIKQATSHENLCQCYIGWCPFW
smiles,measurement,setting,value
Cn1ncc(Cl)c1-c1cc(C(=O)N[C@H](CN)Cc2cccc(F)c2)sc1Cl [GSK2110183],inhibition at 0.5 µM,[1],-1%
same,inhibition at 10 µM,[1],10%
same,inhibition at 0.5 µM,[2],11%
same,inhibition at 10 µM,[2],56%
same,inhibition at 0.5 µM,[3],73%
same,inhibition at 10 µM,[3],97%
same,inhibition at 0.5 µM,[4],15%
same,inhibition at 10 µM,[4],49%
same,inhibition at 0.5 µM,[5],71%
same,inhibition at 10 µM,[5],99%
same,inhibition at 0.5 µM,[6],9%
same,inhibition at 10 µM,[6],69%
same,inhibition at 0.5 µM,[7],3%
same,inhibition at 10 µM,[7],5%
Cn1ncc(Cl)c1-c1cc(C(=O)N[C@H](CN)Cc2ccc(F)c(F)c2)oc1Cl [GSK2141795],inhibition at 0.5 µM,"[1]; 0.5 µM, read-out: % Inhibition",-13%
same,inhibition at 10 µM,"[1]; 10 µM, read-out: % Inhibition",7%
same,inhibition at 0.5 µM,"[2]; 0.5 µM, read-out: % Inhibition",17%
same,inhibition at 10 µM,"[2]; 10 µM, read-out: % Inhibition",66%
same,inhibition at 0.5 µM,"[3]; 0.5 µM, read-out: % Inhibition",72%
same,inhibition at 10 µM,"[3]; 10 µM, read-out: % Inhibition",98%
same,inhibition at 0.5 µM,"[4]; 0.5 µM, read-out: % Inhibition",-4%
same,inhibition at 10 µM,"[4]; 10 µM, read-out: % Inhibition",24%
same,inhibition at 0.5 µM,"[5]; 0.5 µM, read-out: % Inhibition",81%
same,inhibition at 10 µM,"[5]; 10 µM, read-out: % Inhibition",96%
same,inhibition at 0.5 µM,"[6]; 0.5 µM, read-out: % Inhibition",-13%
same,inhibition at 10 µM,"[6]; 10 µM, read-out: % Inhibition",63%
same,inhibition at 0.5 µM,"[7]; 0.5 µM, read-out: % Inhibition",-19%
same,inhibition at 10 µM,"[7]; 10 µM, read-out: % Inhibition",-21%
